In this test the target is T1, Human SST5 somatostatin receptor (SSTR5) (Homo sapiens, UniProt P35346).
T1 construct: expressed in transfected cells; host or cells: HEK-293 EBNA
Description: Filter plate assay for SST5 receptor, displacement of [125I]SST-14. The test is classed as binding. Put shortly:
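HEK-293 EBNA membranes expressing human SST5 (5.5 μg) incubated 60 min at 25 °C with 4 nM [125I]SST-14 and compound in pH 7.5 Tris/EGTA/MgCl2/sucrose buffer. Bound radioactivity collected on PEI-coated glass fiber filters and counted; triplicate 1:5 dilution series from 125 μM, non-specific binding with excess cold ligand.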

From US20080280837A1, “Biologically Active Compounds with Anti-Angiogenic Properties” (priority 2004, published 2008) come the findings set out here.

T1 sequence (P35346 whole entry): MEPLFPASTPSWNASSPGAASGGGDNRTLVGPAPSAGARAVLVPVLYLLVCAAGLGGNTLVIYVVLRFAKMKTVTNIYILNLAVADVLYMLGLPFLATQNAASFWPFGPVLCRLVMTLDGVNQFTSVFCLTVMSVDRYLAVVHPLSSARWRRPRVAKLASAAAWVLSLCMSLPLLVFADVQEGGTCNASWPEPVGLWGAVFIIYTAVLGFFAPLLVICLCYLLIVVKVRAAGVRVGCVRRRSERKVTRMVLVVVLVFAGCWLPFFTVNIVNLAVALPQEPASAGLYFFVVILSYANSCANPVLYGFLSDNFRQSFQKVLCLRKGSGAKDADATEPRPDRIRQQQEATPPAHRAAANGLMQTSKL

Regarding `CSC1O[C@H](COCc2ccccc2)[C@@H](O)[C@@H](OCc2ccc(-c3ccccc3)cc2)[C@H]1NC(=O)CCCN` (stereo partly drawn) [Compound 94], the “SSTR5 Inhib 0.5 uM % (inhibition of binding of SST-14 to SSTR5)” value (from here on “SSTR5 Inhib 0.5 uM %”) was 45% and the “SSTR5 Inhib 10 uM % (inhibition of binding of SST-14 to SSTR5)” value (shortened to “SSTR5 Inhib 10 uM %”) came to 86%.
On the same counts, the results for `COC[C@H]1OC(OCc2ccccc2)[C@H](NC(=O)CCCN)[C@@H](OCc2ccc(-c3ccccc3)cc2)[C@@H]1O` (stereo partly drawn) [Compound 95] are 44% and 85%.
Take `COC[C@H]1OC(OCc2ccc(Cl)cc2)[C@H](NC(=O)CCCNC(=N)N)[C@@H](OCc2ccc(-c3ccccc3)cc2)[C@@H]1O` (stereo partly drawn) [Compound 96]: the “SSTR5 Inhib 0.5 uM %” value was determined as 43% and the “SSTR5 Inhib 10 uM %” value turned out to be 85%.
For `CSC1O[C@H](COCc2ccc3ccccc3c2)[C@@H](O)[C@@H](OCc2ccc(-c3ccccc3)cc2)[C@H]1NC(=O)CN` (stereo partly drawn) [Compound 97], the “SSTR5 Inhib 0.5 uM %” value stood at 41% and the “SSTR5 Inhib 10 uM %” value was determined as 85%.
For the molecule `COC[C@H]1OC(OCCc2ccccc2)[C@H](NC(=O)CCCNC(=N)N)[C@@H](OCc2ccc(Cl)cc2)[C@@H]1O` (stereo partly drawn) [Compound 98], the “SSTR5 Inhib 0.5 uM %” value was 55% and the “SSTR5 Inhib 10 uM %” value is 84%.
As to `COC[C@H]1OC(OCc2ccc(Cl)cc2)[C@H](NC(=O)CCNC(=N)N)[C@H](OCc2ccc(-c3ccccc3)cc2)[C@@H]1O` (stereo partly drawn) [Compound 99], the “SSTR5 Inhib 0.5 uM %” value is reported as 43% and the “SSTR5 Inhib 10 uM %” value was found to be 84%.
Regarding `COC[C@H]1OC(OCc2ccccc2)[C@H](NC(=O)CCCNC(=N)N)[C@H](OCc2ccc3ccccc3c2)[C@@H]1O` (stereo partly drawn) [Compound 100], the “SSTR5 Inhib 0.5 uM %” value is reported as 59% and the “SSTR5 Inhib 10 uM %” value stood at 84%.
In the same order, the values of `COC[C@H]1OC(OCc2ccc(Cl)cc2)[C@H](NC(=O)CCNC(=N)N)[C@@H](OCc2ccc(-c3ccccc3)cc2)[C@@H]1O` (stereo partly drawn) [Compound 101] are 50% and 84%.
As to `COC[C@H]1OC(OCc2ccccc2)[C@H](NC(=O)CCNC(=N)N)[C@H](OCc2ccc(Cl)cc2)[C@@H]1O` (stereo partly drawn) [Compound 102], the “SSTR5 Inhib 0.5 uM %” value was determined as 42% and the “SSTR5 Inhib 10 uM %” value is given as 84%.
Regarding `COC[C@H]1OC(OCc2ccc3ccccc3c2)[C@H](NC(=O)CCCNC(=N)N)[C@@H](OCc2ccc(Cl)cc2)[C@@H]1O` (stereo partly drawn) [Compound 103], the “SSTR5 Inhib 0.5 uM %” value turned out to be 48% and the “SSTR5 Inhib 10 uM %” value was 84%.
On the same counts, the results for `COC[C@H]1OC(OCc2ccc3ccccc3c2)[C@H](NC(=O)CCCNC(=N)N)[C@@H](OCc2ccc3ccccc3c2)[C@@H]1O` (stereo partly drawn) [Compound 104] are 47% and 84%.
As for `CSC1O[C@H](COCc2ccc3ccccc3c2)[C@@H](O)[C@@H](OCc2ccccc2)[C@H]1NC(=O)CCN` (stereo partly drawn) [Compound 105], the “SSTR5 Inhib 0.5 uM %” value turned out to be 44% and the “SSTR5 Inhib 10 uM %” value is given as 83%.
For `COC[C@H]1OC(OCCc2ccccc2)[C@H](NC(=O)CCN)[C@H](OCc2ccccc2)[C@@H]1O` (stereo partly drawn) [Compound 106], the “SSTR5 Inhib 0.5 uM %” value was 53% and the “SSTR5 Inhib 10 uM %” value amounted to 83%.
Turning to `COC[C@H]1OC(OCc2ccc(-c3ccccc3)cc2)[C@H](NC(=O)CCCNC(=N)N)[C@@H](OCc2ccc3ccccc3c2)[C@@H]1O` (stereo partly drawn) [Compound 107], the “SSTR5 Inhib 0.5 uM %” value is 54% and the “SSTR5 Inhib 10 uM %” value worked out at 83%.
On to `COC[C@H]1OC(OCc2ccc(-c3ccccc3)cc2)[C@H](NC(=O)CCNC(=N)N)[C@@H](OCc2ccc(Cl)cc2)[C@@H]1O` (stereo partly drawn) [Compound 108], for which the “SSTR5 Inhib 0.5 uM %” value is 47% and the “SSTR5 Inhib 10 uM %” value was 83%.
